Measurements: US20210137119A1 (priority 2017, published 2021)
Read-outs that look alike come from different tables or passages of the source.

System: Fusarium graminearum in wheat
Assay type: in vivo
[1] = Trial 1, dosage mL/Ha: benzovindiflupyr 200, phenamacril 1500, combination 200 + 1500
[2] = Trial 2, dosage mL/Ha: benzovindiflupyr 200, phenamacril 1500, combination 200 + 1500
[3] = Trial 3, dosage mL/Ha: benzovindiflupyr 200, phenamacril 1500, combination 150 + 1250
[4] = Trial 4, dosage mL/Ha: benzovindiflupyr 200, phenamacril 1500, combination 150 + 1250

SMILES: Cn1cc(C(=O)Nc2cccc3c2[C@@H]2CC[C@H]3C2=C(Cl)Cl)c(C(F)F)n1 (racemic) [Benzovindiflupyr, N-[(1RS,4SR)-9-(dichloromethylene)-1,2,3,4-tetrahydro-1,4-methanonaphthalen-5-yl]-3-(difluoromethyl)-1-methylpyrazole-4-carboxamide]
- % disease control of Fusarium graminearum in wheat at 3DAA, Actual [1]: 27%
- % disease control of Fusarium graminearum in wheat at 7DAA, Actual [2]: 27%
- % disease control of Fusarium graminearum in wheat at 3DAA, Actual [3]: 27%
- % disease control of Fusarium graminearum in wheat at 7DAA, Actual [4]: 27%

SMILES: CCOC(=O)C(C#N)=C(N)c1ccccc1 [Phenamacril, ethyl (2EZ)-3-amino-2-cyano-3-phenylacrylate]
- % disease control of Fusarium graminearum in wheat at 3DAA, Actual [1]: 83.5%
- % disease control of Fusarium graminearum in wheat at 7DAA, Actual [2]: 83.5%
- % disease control of Fusarium graminearum in wheat at 3DAA, Actual [3]: 83.5%
- % disease control of Fusarium graminearum in wheat at 7DAA, Actual [4]: 83.5%
